From US8420144B2, “Kokumi-imparting agent, method of using, and compositions containing same” (Ajinomoto Co., Inc., priority 2005, dated 2013)

Assays:
Type in all cases: in vivo, human
[1] = Quantitative sensory evaluation test of kokumi-imparting activity in water with sodium glutamate, inosine monophosphate and sodium chloride; parameters: key: *: Unmeasurable: Kokumi-imparting activity was too strong and could not be measured by the sensory evaluation
Experimental: Sample solutions that became acidic after dissolution of the samples were adjusted to pH 6.8 to 7.2 with NaOH before use. Sensory evaluation scores were used for evaluation based on the control sample (0 points) and the glutathione sample (3 points), and the test was performed with n=3.
The sample solutions that became acidic after dissolution of the samples were adjusted to pH 6.8 to 7.2 with NaOH before use. Sensory evaluation scores were used for evaluation based on the control sample (0 points) and the glutathione sample (3 points), and the test was performed with n=5.
Sample solutions that became acidic after dissolution of the samples were adjusted to pH 6.8 to 7.2 with NaOH before use. Sensory evaluation scores were used for evaluation based on the control sample (0 points) and the glutathione sample (3 points), and the test was performed with n=12.

[2] = Quantitative sensory evaluation test of activity on basic tastes (umami, sweet, salty, sour standards); details: n=12, 0 control, 1 fairly intense, 2 intense; for Sour taste (intensity of activity on basic tastes): citric acid 0.05 g/dl standard; for Salty taste (intensity of activity on basic tastes): sodium chloride 0.7 g/dl standard; for Umami (intensity of activity on basic tastes): sodium glutamate 0.2 g/dl standard; for Sweet taste (intensity of activity on basic tastes): sucrose 5 g/dl standard
Experimental: The intensity of the activity on basic tastes of each peptide having confirmed calcium receptor activation activity was measured by a quantitative sensory evaluation test, performed as follows: Samples of either γ-Glu-Cys-Gly (glutathione) or γ-Glu-Val-Gly were added to distilled water (0.0001 to 1 g/dl) containing sodium glutamate (0.2 g/dl) for the umami standard, sucrose (5 g/dl) for the sweet taste standard, sodium chloride (0.7 g/dl) or the salty taste standard, or citric acid (0.05 g/dl) for the sour taste standard, and the intensity of the activity on basic tastes was measured for each sample.
Sample solutions that became acidic after dissolution of the samples with respect to the standard solutions without the samples were adjusted with NaOH to pH not lower or higher by 0.2 than pH of the standard solutions before use. Sensory evaluation scores were used to evaluate the intensity as follows: 0 points for the control sample, 1 point for fairly intense activity as compared to the control, and 2 points for intense activity as compared to the control, and the test was performed with n=12.

[3] = Quantitative sensory evaluation test: imparting kokumi to consomme soup; details: n=12, 0 control, 3 intense, 5 extremely intense
Experimental: The intensity of activity for imparting kokumi to consomme soup of each peptide having confirmed calcium receptor activation activity was measured by a quantitative sensory evaluation test, performed as follows: Consomme soup was prepared by dissolving consomme soup powder (35% of sodium chloride, 18% of sodium glutamate, 0.2% of inosine monophosphate, 0.3% of white pepper powder, 0.5% of black pepper powder, 8.0% of beef extract powder, 3.0% of white wine powder, 2.0% of celery powder, 8.0% of Chinese cabbage extract powder, 2.5% of onion extract powder, […]) at a concentration of 5 g/dl. To this consomme soup, samples of either γ-Glu-Cys-Gly (glutathione) or γ-Glu-Val-Gly was added to a concentration of 0.0001 to 1 g/dl, and the intensity of the kokumi-imparting activity was measured for each sample. The consomme soup with the samples that became acidic after dissolution of the samples with respect to the consomme soup without the samples was adjusted with NaOH to pH not lower or higher by 0.2 than pH of the consomme soup without the samples before use. Sensory evaluation scores were used for evaluation as follows: 0 points for the control sample, 3 points for intense activity as compared to the control, and 5 points for extremely intense activity as compared to the control, and the test was performed with n=12.

[4] = Quantitative sensory evaluation test: imparting kokumi to Japanese clear soup; details: n=12, 0 control, 3 intense, 5 extremely intense
Experimental: The intensity of activity for imparting kokumi to clear soup of each peptide having confirmed calcium receptor activation activity was measured by a quantitative sensory evaluation test, performed as follows: Japanese clear soup was prepared by adding 0.5 g/dl of soy sauce and 0.6 g/dl of sodium chloride to bonito kelp stock, obtained by adding 5 g of dried kelp to 3 L of water, heating the water, adding 25 g of dried bonito flakes just before boiling, and then filtering the water containing kelp and bonito flakes. To this clear soup, samples of either γ-Glu-Cys-Gly (glutathione) or γ-Glu-Val-Gly was added to a concentration of 0.0001 to 1 g/dl, and the intensity of the kokumi-imparting activity was measured for each sample. The clear soup with the samples that became acidic after dissolution of the samples with respect to the clear soup without the samples were adjusted with NaOH to pH not lower or higher by 0.2 than pH of the clear soup without the samples before use. Sensory evaluation scores were used to evaluate as follows: 0 points for the control sample, 3 points for intense activity as compared to the control, and 5 points for extremely intense activity as compared to the control, and the test was performed with n=12.

[5] = Quantitative sensory evaluation test: imparting kokumi to curry sauce; details: n=12, 0 control, 3 intense, 5 extremely intense
Experimental: The intensity of the activity for imparting kokumi to curry sauce of each peptide having confirmed calcium receptor activation activity was measured by a quantitative sensory evaluation test, performed as follows: to curry sauce prepared in a conventional manner by using commercially available curry roux, samples of either γ-Glu-Cys-Gly (glutathione) or γ-Glu-Val-Gly were added to a concentration of 0.0001 to 1 g/dl, and the intensity of kokumi-imparting activity was measured for each sample. The curry sauces with the samples that became acidic after dissolution of the samples with respect to the curry soup without the samples were adjusted with NaOH to pH not lower or higher by 0.2 than pH of the curry soup without the samples before use. Sensory evaluation scores were used to evaluate as follows: 0 points for the control sample, 3 points for intense activity as compared to the control, and 5 points for extremely intense activity as compared to the control, and the test was performed with n=12.

[6] = Quantitative sensory evaluation test: kokumi-imparting activity of peptides combined with known calcium receptor activators or additives; details: for Intensity of kokumi: Aftertaste / Intensity of kokumi: First and middle taste: alone, n=12, 0 control, 3 intense, 6 extremely intense
Experimental: The intensity of the kokumi-imparting activity of each peptide having confirmed calcium receptor activation activity and a known calcium receptor activator used in combination was measured by a quantitative sensory evaluation test, performed as follows: Samples of γ-Glu-Cys-Gly (glutathione) or γ-Glu-Val-Gly (0.0001 to 1 g/dl), or these samples combined with a calcium receptor activator such as calcium lactate, protamine or polylysine, or GABA (addition concentration: 0.0001 to 1 g/dl) were added to distilled water containing sodium glutamate (0.05 g/dl), inosine monophosphate (0.05 g/dl), and sodium chloride (0.5 g/dl), and the intensity of the kokumi-imparting activity was measured. Sample solutions that became acidic after dissolution of the samples were adjusted to pH 6.8 to 7.2 with NaOH before use. Sensory evaluation scores were used to evaluate as follows: 0 points for the control sample, 3 points for intense activity (as intensity of 0.05 g/dl γ-Glu-Cys-Gly and 0.005 g/dl γ-Glu-Val-Gly), and 6 points for extremely intense activity (as twice intensity of 0.05 g/dl γ-Glu-Cys-Gly and 0.005 g/dl γ-Glu-Val-Gly), and the test was performed with n=12.

[7] = Table 5, 0.1 g/dl, n=3, control 0, glutathione 3 points
[8] = Table 6, 0.1 g/dl, n=5, control 0, glutathione 3 points
[9] = Table 7, 0.1 g/dl, n=12, control 0, glutathione 3 points
[10] = Table 6, 0.01 g/dl, n=5, control 0, glutathione 3 points
[11] = Table 7, 0.01 g/dl, n=12, control 0, glutathione 3 points

N[C@@H](CCC(=O)N[C@@H](CS)C(=O)NCC(=O)O)C(=O)O [γ-Glu-Cys-Gly, reference compound]
Intensity of kokumi: Aftertaste [1, 7]: 3.0 points
Intensity of kokumi: First and middle taste [1, 7]: 3.0 points
Intensity of kokumi: Aftertaste [1, 8]: 3.0 points
Intensity of kokumi: First and middle taste [1, 8]: 3.0 points
Intensity of kokumi: Aftertaste [1, 9]: 3.0 points
Intensity of kokumi: First and middle taste [1, 9]: 3.0 points
Sour taste (intensity of activity on basic tastes) ([2]; 0.10 g/dl): 1.5 points
Salty taste (intensity of activity on basic tastes) ([2]; 0.10 g/dl): 0.2 points
Umami (intensity of activity on basic tastes) ([2]; 0.10 g/dl): 0.7 points
Sweet taste (intensity of activity on basic tastes) ([2]; 0.10 g/dl): 1.5 points
Intensity of kokumi: Aftertaste ([3]; 0.01 g/dl): 3.0 points
Intensity of kokumi: First and middle taste ([3]; 0.01 g/dl): 3.0 points
Intensity of kokumi: Aftertaste ([4]; 0.01 g/dl): 2.0 points
Intensity of kokumi: First and middle taste ([4]; 0.01 g/dl): 2.0 points
Intensity of kokumi: Aftertaste ([5]; 0.01 g/dl): 3.0 points
Intensity of kokumi: First and middle taste ([5]; 0.01 g/dl): 3.0 points
Intensity of kokumi: Aftertaste ([6]; 0.05 g/dl): 3.0 points
Intensity of kokumi: First and middle taste ([6]; 0.05 g/dl): 3.0 points
kokumi-imparting activity when used with a known calcium receptor activator or the like such as calcium ([6]; conclusion from Table 13): can have improved kokumi-imparting activity

CC(C)[C@H](NC(=O)CC[C@H](N)C(=O)O)C(=O)NCC(=O)O [γ-Glu-Val-Gly]
Intensity of kokumi: Aftertaste [1, 10]: 3.0 points
Intensity of kokumi: First and middle taste [1, 10]: 3.0 points
Intensity of kokumi: Aftertaste ([1]; Table 6, 0.1 g/dl, n=5): *
Intensity of kokumi: First and middle taste ([1]; Table 6, 0.1 g/dl, n=5): *
Intensity of kokumi: Aftertaste [1, 11]: 3.0 points
Intensity of kokumi: First and middle taste [1, 11]: 3.0 points
Sour taste (intensity of activity on basic tastes) ([2]; 0.005 g/dl): 0.5 points
Salty taste (intensity of activity on basic tastes) ([2]; 0.005 g/dl): 0.5 points
Umami (intensity of activity on basic tastes) ([2]; 0.005 g/dl): 0.7 points
Sweet taste (intensity of activity on basic tastes) ([2]; 0.005 g/dl): 0.5 points
Sour taste (intensity of activity on basic tastes) ([2]; 0.01 g/dl): 1.0 points
Salty taste (intensity of activity on basic tastes) ([2]; 0.01 g/dl): 1.0 points
Umami (intensity of activity on basic tastes) ([2]; 0.01 g/dl): 1.5 points
Sweet taste (intensity of activity on basic tastes) ([2]; 0.01 g/dl): 1.0 points
Intensity of kokumi: Aftertaste ([3]; 0.0005 g/dl): 3.0 points
Intensity of kokumi: First and middle taste ([3]; 0.0005 g/dl): 2.5 points
Intensity of kokumi: Aftertaste ([3]; 0.001 g/dl): 3.5 points
Intensity of kokumi: First and middle taste ([3]; 0.001 g/dl): 3.0 points
Intensity of kokumi: Aftertaste ([3]; 0.01 g/dl): 5.0 points
Intensity of kokumi: First and middle taste ([3]; 0.01 g/dl): 5.0 points
Intensity of kokumi: Aftertaste ([3]; 0.1 g/dl): 5.0 points
Intensity of kokumi: First and middle taste ([3]; 0.1 g/dl): 5.0 points
Intensity of kokumi: Aftertaste ([4]; 0.0005 g/dl): 3.0 points
Intensity of kokumi: First and middle taste ([4]; 0.0005 g/dl): 2.5 points
Intensity of kokumi: Aftertaste ([4]; 0.001 g/dl): 4.0 points
Intensity of kokumi: First and middle taste ([4]; 0.001 g/dl): 3.5 points
Intensity of kokumi: Aftertaste ([4]; 0.01 g/dl): 5.0 points
Intensity of kokumi: First and middle taste ([4]; 0.01 g/dl): 5.0 points
Intensity of kokumi: Aftertaste ([4]; 0.1 g/dl): 5.0 points
Intensity of kokumi: First and middle taste ([4]; 0.1 g/dl): 5.0 points
Intensity of kokumi: Aftertaste ([5]; 0.001 g/dl): 3.0 points
Intensity of kokumi: First and middle taste ([5]; 0.001 g/dl): 2.5 points
Intensity of kokumi: Aftertaste ([5]; 0.005 g/dl): 4.0 points
Intensity of kokumi: First and middle taste ([5]; 0.005 g/dl): 3.5 points
Intensity of kokumi: Aftertaste ([5]; 0.01 g/dl): 5.0 points
Intensity of kokumi: First and middle taste ([5]; 0.01 g/dl): 5.0 points
Intensity of kokumi: Aftertaste ([5]; 0.1 g/dl): 5.0 points
Intensity of kokumi: First and middle taste ([5]; 0.1 g/dl): 5.0 points
Intensity of kokumi: Aftertaste ([6]; 0.005 g/dl): 3.0 points
Intensity of kokumi: First and middle taste ([6]; 0.005 g/dl): 3.0 points
